# From patent US20250295792A1, “POLYETHYLENE GLYCOL-MODIFIED FORM OF KININ OR DERIVATIVE THEREOF AND PHARMACEUTICAL USE THEREOF” (ZonHon Biopharma Institute, Inc., priority 2022, published 2025)
# Read-outs that look alike come from different tables or passages of the source. Where a SMILES comes first, the peptide text is derived from it. Where no end group is shown, it is not given here. [ ]: non-standard residue; d: D form. M‑SPA‑5K = straight-chain monomethoxy PEG succinimidyl propionate, about 5 kDa; 2Thi = N[C@@H](Cc1cccs1)C(=O)O
# Tests used:
# [1] = test system: middle cerebral artery occlusion (MCAO) cerebral ischemia-reperfusion model; test: MCAO cerebral ischemia-reperfusion model: neurological deficit score and cerebral infarct size; format: in vivo, SD rats; details: for Neurological deficit symptoms compared with the model group (in words): Example 7, FIG. 7a; for Neurological deficit symptoms compared with the model group (in words) / Cerebral infarct size compared with the model group (in words): intravenous, Edaravone 6 mg/kg, conjugate 3 mg/kg; for Cerebral infarct size compared with the model group (in words): Example 7, FIG. 7b
# Experimental: SD rats, male, SPF grade, weighing 270-300 g. The middle cerebral artery occlusion (MCAO) of cerebral ischemia-reperfusion model was prepared by using the intraluminal suture method in rats. Animals were anesthetized with gas (isoflurane), and then fixed them in a supine position. The skin was disinfected, and the right common carotid artery, external carotid artery, and internal carotid artery were separated from the midline incision in the neck. The vagus nerve was gently peeled off, and the external carotid artery was ligated and cut. The common carotid artery was clamped near the proximal end, and an incision was made from the distal end of the ligature line of the external carotid artery. The suture (model 2438-A5, purchased from Beijing Xinong Technology Co., LTD.) was inserted and passed through the bifurcation of the common carotid artery into the internal carotid artery. The suture was then slowly inserted until slight resistance was encountered (about 20 mm from the bifurcation), blocking the blood supply to the middle cerebral artery. The neck skin was sutured, disinfected, and the rat was returned to the cage. After 90 minutes of ischemia, the rat was anesthetized again, fixed on the rat board, and the neck skin was cut open to find the suture, which was gently removed. Reperfusion was performed, and the neck skin was sutured, disinfected, and the rat was returned to the cage for feeding.
# The rats were divided into sham operation group, model group (administered PBS intravenously), Edaravone group (administered intravenously, 6 mg/kg), and PEG conjugate of lysyl bradykinin group (administered intravenously, 3 mg/kg). The rats were injected once after 2 hours of reperfusion.
# The modified Bederson method was used to evaluate neurological defect symptoms.
# Animals were anesthetized with 10% chloral hydrate, the brain tissue was removed, the olfactory bulbs, cerebellum and lower brainstem were removed, and the bloodstain on brain surface was washed with […]. After removing surface residual water, the brain tissue was placed at −80° C. for 7 minutes, took out and cut into coronal sections perpendicular to the visual cross plane, and sliced at intervals of 2 mm to the posterior direction. The brain slices were placed in fresh TTC (20 g/L) dye solution prepared with SPSS at 37° C. for 90 minutes. Normal brain tissue was stained deep red, while ischemic brain tissue appeared pale. After washing with SPSS, the brain slices were quickly arranged in sequence from front to back, residual water on the surface was absorbed, and photographed. The image analysis software (Image Tool) was used to delineate the ischemic area (white area) and the right side area on the photos for statistical analysis. The percentage of cerebral infarction area was calculated using the following formula:
# Cerebral infarction area (%)=100×total ischemic area/total right hemisphere area.
# Except for Table 7-6, the dosage of the other groups was 3 mg/kg (all the dosage was calculated based on peptides). The administration methods included intravenous injection and subcutaneous injection, and the injection was given once after 2 hours of reperfusion.
# Based on the same model, the effect of PEG conjugate of lysyl bradykinin variant was investigated by both intravenous and subcutaneous injection at dose of […] (the dose was calculated based on polypeptide). […]
# [2] = Stability in SD rat serum system in vitro (UPLC-RP)
# Experimental: Assess the stability of lysyl bradykinin/bradykinin by evaluating its stability in serum system in vitro. 2 mg/ml peptide and SD rat serum were mixed at volume ratio of 85:15, incubated at 37° C. for 30 min, 60 min, 90 min, 120 min, 180 min, etc, terminate by adding 3% trichloroacetic acid (50% volume of the above mixture system with peptide and serum) and effectively remove matrix interference in the serum. Further monitor the degradation of peptide samples in the serum system to evaluate its stability basing on UPLC-RP-UV214 nm method. RP analysis method: Protein BEH C4 2.1×150 mm as chromatographic column, 1.7 μm, column temperature 30° C., mobile phase A: 0.1% TFA/H2O, mobile phase B: 0.1% TFA/ACN, gradient: 0-5 min, 5% B; 5-10 min, 5-40% B; 10-30 min, 40-60% B; 30-32 min, 60-100% B; 32 to 35 min, 5% B.
# The stability of PEG conjugates of lysyl bradykinin and its variants was indirectly evaluated by evaluating their stability in serum system in vitro, as determined in Example 2.
# [3] = subcutaneous 30 mg in adults; cited from earlier work
# B2 receptor = molecular target: T1, B2 receptor (Homo sapiens, UniProt P30411); test: B2 receptor reporter gene assay in B2-NFAT-CHO-K1 cells; format: cell-based; details: Table 3-1; relative activity calculated from EC50, wild type Lys-BK = 100%
# T1 construct: expressed in transfected cells; host or cells: CHO-K1
# T1 sequence (P30411 1-391): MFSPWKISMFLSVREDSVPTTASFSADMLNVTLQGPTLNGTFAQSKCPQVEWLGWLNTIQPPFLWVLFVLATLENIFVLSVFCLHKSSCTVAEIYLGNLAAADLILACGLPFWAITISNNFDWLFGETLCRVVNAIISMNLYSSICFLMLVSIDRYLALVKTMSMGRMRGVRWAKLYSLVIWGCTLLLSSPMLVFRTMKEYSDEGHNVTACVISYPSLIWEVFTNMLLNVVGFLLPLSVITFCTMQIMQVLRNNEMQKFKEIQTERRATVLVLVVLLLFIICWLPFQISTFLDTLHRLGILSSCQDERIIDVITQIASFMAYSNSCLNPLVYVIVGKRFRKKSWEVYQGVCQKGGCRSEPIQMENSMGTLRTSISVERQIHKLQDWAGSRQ
# From the text: The pharmacological action of lysyl bradykinin/bradykinin in vivo is achieved by binding to B2 receptors and activating downstream signaling pathways
# The cell line B2-NFAT-CHO-K1 stably transfected with B2 receptor reporter gene was constructed based on CHO-K1 host cells and the cell library was constructed. The B2-NFAT-CHO-K1 cell library was used to evaluate the binding activity of lysyl bradykinin/bradykinin or its variants or PEG modified products to B2 receptor in vitro.
# Detection methods: The cells were cultured in 96-well plates at 5×10^4 cells/well, 37° C., 5% CO2 for 16-20 hours, and then gradient diluted standard and test solutions were added. After 5 hours, added Bio-Lite luciferase detection reagent and the chemiluminescence intensity was measured. GraphPad was used to make four-parameter equation curve and calculate the relative activity according to the EC50 value.
# (§1) In vitro B2-receptor affinity activity and activity of activating downstream signaling pathway of PEG conjugates of lysyl bradykinin and its variants were tested, as in Example 3.
# [4] = test system: p-CREB and p-ERK1/2, B2 receptor downstream signals; test: Western blot of p-ERK1/2 and p-CREB in CHO-K1 cells overexpressing B2 receptor; format: cell-based; details: FIG. 5
# Experimental: as §1
# [5] = Table 2-1, 2 mg/ml peptide : SD rat serum 85:15 v/v, 37° C., sampled 30-180 min
compound,measurement,setting,value
"CC1=NN(c2ccccc2)C(=O)C1 [Edaravone, reference compound]",Neurological deficit symptoms compared with the model group (in words),[1],significant improvement in neurological deficit symptoms
same,Cerebral infarct size compared with the model group (in words),[1],significant improvement in cerebral infarct size
same,Neurological deficit symptom score,"[1]; Table 6-1, intravenous 6 mg/kg once 2 h after reperfusion, Mean ± SE, model group 3.13 ± 0.09",2.40 ± 0.13
same,Cerebral infarct size (%),"[1]; Table 6-2, intravenous 6 mg/kg, Mean ± SE, model group 48.50 ± 1.66",34.12 ± 2.35 %
N=C(N)NCCC[C@H](NC(=O)[C@H](Cc1ccccc1)NC(=O)[C@@H]1CCCN1C(=O)[C@H](CO)NC(=O)[C@H](Cc1cccs1)NC(=O)CNC(=O)[C@@H]1CCCN1C(=O)[C@@H]1CCCN1C(=O)[C@H](CCCNC(=N)N)NC(=O)[C@H](CCCNC(=N)N)NC(=O)[C@@H](N)CCCCN)C(=O)O [Lys-BKm11] (H-KRRPPG[2Thi]SPFR-OH; N-terminus and C-terminus assumed),Residual time in serum system,[2]; [5],60~90 min
N=C(N)NCCC[C@H](NC(=O)[C@H](Cc1ccccc1)NC(=O)[C@@H]1CCCN1C(=O)[C@H](CO)NC(=O)[C@H](Cc1cccs1)NC(=O)CNC(=O)[C@@H]1CCCN1C(=O)[C@@H]1CCCN1C(=O)[C@H](CCCNC(=N)N)NC(=O)[C@H](CCCCN)NC(=O)[C@H](CCCNC(=N)N)NC(=O)[C@H](Cc1ccccc1)NC(=O)[C@@H]1CCCN1C(=O)[C@H](CO)NC(=O)[C@H](Cc1cccs1)NC(=O)CNC(=O)[C@@H]1CCCN1C(=O)[C@@H]1CCCN1C(=O)[C@H](CCCNC(=N)N)NC(=O)[C@@H](N)CCCCN)C(=O)O [Lys-BKm14] (H-KRPPG[2Thi]SPFRKRPPG[2Thi]SPFR-OH; N-terminus and C-terminus assumed),Residual time in serum system,[2]; [5],90 to 120 min
N=C(N)NCCC[C@H](NC(=O)[C@H](Cc1ccccc1)NC(=O)[C@@H]1CCCN1C(=O)[C@H](CO)NC(=O)[C@H](Cc1cccs1)NC(=O)CNC(=O)[C@@H]1CCCN1C(=O)[C@@H]1CCCN1C(=O)[C@H](CCCNC(=N)N)NC(=O)[C@H](CCCNC(=N)N)NC(=O)[C@H](CCCNC(=N)N)NC(=O)[C@@H](N)CS)C(=O)O [Lys-BKm16] (H-CRRRPPG[2Thi]SPFR-OH; N-terminus and C-terminus assumed),Residual time in serum system,[2]; [5],60~90 min
NC(N)=NCCC[C@@H](N)C(=O)N[C@@H](CCCN=C(N)N)C(=O)N1CCC[C@H]1C(=O)N1C[C@H](O)C[C@H]1C(=O)NCC(=O)N[C@@H](Cc1cccs1)C(=O)N[C@@H](CO)C(=O)N1Cc2ccccc2C[C@@H]1C(=O)N1[C@H](C(=O)N[C@@H](CCCN=C(N)N)C(=O)O)C[C@@H]2CCCC[C@@H]21 [icatibant],peak blood concentration,[3],405 ng/mL
same,time to peak blood concentration,[3],1.79 h
Lys-BK-SPA5K: wild-type Lys-BK N-terminally single-modified with straight-chain M-SPA-5K PEG (about 5 kDa),Residual time in serum system,[2],>360 min
same,Neurological deficit symptoms compared with the model group (in words),[1],significant improvement in neurological deficit symptoms
same,Cerebral infarct size compared with the model group (in words),[1],significant improvement in cerebral infarction area
same,Neurological deficit symptom score,"[1]; Table 6-1, intravenous 3 mg/kg once 2 h after reperfusion, Mean ± SE, model group 3.13 ± 0.09",2.38 ± 0.15
same,Cerebral infarct size (%),"[1]; Table 6-2, intravenous 3 mg/kg, Mean ± SE, model group 48.50 ± 1.66",34.84 ± 2.90 %
same,Neurological deficit symptom score,"[1]; Table 7-1, intravenous injection 3 mg/kg, model group 2.69 ± 0.12",2.13 ± 0.18
same,Cerebral infarct size (%),"[1]; Table 7-1, intravenous injection 3 mg/kg, model group 38.73 ± 1.99",24.73 ± 3.15 %
same,Neurological deficit symptom score,"[1]; Table 9-1, oral administration once 6 mg/kg, model group 2.12 ± 0.17",1.60 ± 0.17
same,Cerebral infarct size (%),"[1]; Table 9-1, oral administration once 6 mg/kg, model group 29.23 ± 4.32",22.82 ± 2.56%
"Lys-BKm08: variant peptide PG{THI}SPFR, SEQ ID NO 9 (PG[2Thi]SPFR)",Relative affinity activity,B2 receptor,<10%
"Lys-BKm09: variant peptide {THI}SPFR, SEQ ID NO 10 ([2Thi]SPFR)",Relative affinity activity,B2 receptor,0%
"Lys-BKm10: variant peptide SPFR, SEQ ID NO 11",Relative affinity activity,B2 receptor,0%
Lys-BKm13-SPA5K: Lys-BKm13 N-terminally single-modified with M-SPA-5K PEG ({M‑SPA‑5K}-CRRPPG[2Thi]SPFR),Neurological deficit symptoms and cerebral infarction area compared with the model group (in words),"[1]; Example 9, intravenous and subcutaneous injection 4.5 mg/kg",significant improvement in neurological deficit symptoms and cerebral infarction area
same,Neurological deficit symptom score,"[1]; Table 7-4, intravenous injection 3 mg/kg, model group 3.00 ± 0.10",2.13 ± 0.15
same,Cerebral infarct size (%),"[1]; Table 7-4, intravenous injection 3 mg/kg, model group 38.79 ± 2.01",23.54 ± 1.99 %
same,Neurological deficit symptom score,"[1]; Table 7-6, subcutaneous injection 4.5 mg/kg, model group 3.00 ± 0.09",2.69 ± 0.12
same,Cerebral infarct size (%),"[1]; Table 7-6, subcutaneous injection 4.5 mg/kg, model group 41.40 ± 1.83",36.07 ± 2.47%
same,Neurological deficit symptom score,"[1]; Table 8-1, intravenous injection 4.5 mg/kg, model group 2.80 ± 0.11",2.19 ± 0.16
same,Cerebral infarct size (%),"[1]; Table 8-1, intravenous injection 4.5 mg/kg, model group 38.45 ± 2.16",25.16 ± 2.36 %
same,Neurological deficit symptom score,"[1]; Table 8-1, subcutaneous injection 4.5 mg/kg, model group 2.80 ± 0.11",2.25 ± 0.17
same,Cerebral infarct size (%),"[1]; Table 8-1, subcutaneous injection 4.5 mg/kg, model group 38.45 ± 2.16",26.06 ± 2.69 %
same,"Activity of activating phosphorylation of ERK1/2 and CREB, PEG conjugates (in words)",[4],highest activity among different peptide variants
